Data: patent US12274696B2, “Methods of administering nalbuphine” (Trevi Therapeutics, Inc., priority 2020, dated 2025)

Assays:
clinical = conditions: human, plasma, oral
Text: (§1) Healthy subjects receive a single dose of drug at the highest dose studied in the liver-impaired subjects in order to make relative comparison to the PK aspects of Nalbuphine extended release (ER).
(§2) Cohort 1 consists of subjects with impaired hepatic function divided into three groups with some subjects in each of the mild Child-Pugh A category (Group 1), the moderate Child-Pugh B category (Group 2), and the severe Child-Pugh category C (Group 3). Cohort 2-4 consists of subjects with impaired hepatic function divided into two groups with some subjects in each of the mild Child-Pugh A category (Group 1), and the moderate Child-Pugh B category (Group 2).
(§3) Dosing: Subjects receive a single ascending dose, under fasting condition, at the following dose levels:
(§4) Each of the cohorts is dosed sequentially starting with the lowest dose. Subjects with mild or moderate hepatic impairment enrolled in Cohort 1 are optionally enrolled in Cohorts 2, 3, and 4. For each dose cohort, enrollment of subjects with mild or moderate hepatic impairment is done in parallel. An evaluation of safety and tolerability of the combined mild and moderate hepatic impairment subject data is done at each dose level before proceeding to the next dose level.
(§5) Blood: Blood from the patients of each cohort is collected in K2EDTA tubes. The plasma fractions are separated by centrifugation and stored frozen until analysis. Blood samples are collected at the following time points: 0 h (prior to the dose), 1.5, 3, 5, 7, 9, 12, 24, 36, 48, and 72 h after the dose.

[1] = cohorts 1-4
Text: as §1, §2, §3, §4, §5

In the case of `Cl.Oc1ccc2c3c1OC1[C@@H](O)CC[C@@]4(O)[C@@H](C2)N(CC2CCC2)CC[C@]314` (stereo partly drawn) [nalbuphine, 17-(cyclobutylmethyl)-4,5α-epoxymorphinian-3, 6α, 14-triol, hydrochloride], the AUC(0-t) (clinical; 27 mg, AUC0-t Mean, 27 mg single dose, Cohort 1, mild hepatic impairment (Child Pugh A)) is reported as 48.9 ng·h/mL, the AUC(0-t) (clinical; 27 mg, AUC0-t Mean, 27 mg single dose, Cohort 1, moderate hepatic impairment (Child Pugh B)) is reported as 244 ng·h/mL and the AUC(0-t) (clinical; 27 mg, AUC0-t Mean, 27 mg single dose, Cohort 1, severe hepatic impairment (Child Pugh C)) is reported as 489 ng·h/mL. The Cmax (clinical; 27 mg, Cmax Mean, 27 mg single dose, Cohort 1, mild hepatic impairment (Child Pugh A)) was 3.56 ng/mL, the Cmax (clinical; 27 mg, Cmax Mean, 27 mg single dose, Cohort 1, moderate hepatic impairment (Child Pugh B)) was 14.6 ng/mL and the Cmax (clinical; 27 mg, Cmax Mean, 27 mg single dose, Cohort 1, severe hepatic impairment (Child Pugh C)) was 28.3 ng/mL. For the same compound, the AUC(0-t) (clinical; 162 mg, mean AUC0-t, 162 mg single dose, Cohort 4, mild hepatic impairment (Child Pugh A)) was 375 ng·h/mL, the AUC(0-t) (clinical; 162 mg, mean AUC0-t, 162 mg single dose, Cohort 4, moderate hepatic impairment (Child Pugh B)) was 1230 ng·h/mL and the Cmax (clinical; 162 mg, mean Cmax, 162 mg single dose, Cohort 4, mild hepatic impairment (Child Pugh A)) was 19.9 ng/mL. For the same compound, the Cmax (clinical; 162 mg, mean Cmax, 162 mg single dose, Cohort 4, moderate hepatic impairment (Child Pugh B)) was 65.4 ng/mL and the Half-life across cohorts [1] was “similar”.
